The term ED50 denotes the dose that gives a 50% effect, or the effect in half of the subjects.

Data on 28 compounds can be found in patent US5817651A, “3-arylcarbonyl-1-(C-attached-N-heteryl)-1H-indoles” (Sanofi, priority 1997, dated 1998).

Common to all, as to assay type: in vivo
Assay [1] relates to acetylcholine-induced abdominal constriction. The assay is described as follows: acetylcholine-induced abdominal constriction test (ACH). The following applies: mice; for ED50: Mus musculus. From the text: J. Pharmacol. Chemotherap. 32, 295 (1968); a modification of the anti-bradykinin test, which is also a primary analgesic screening procedure, described by Berkowitz et al., J. Pharmacol. Exptl. Therap. 177, 500-508 (1971), Blane et al., J. Pharm. Pharmacol. 19, 367-373 (1967), Botha et al., Eur. J. Pharmacol. 6, 312-321 (1969) and Deffenu et al., J. Pharm. Pharmacol. 18, 135 (1966); and the Randall-Selitto analgesic test described by Randall and Selitto, Arch. Int. Pharmacodyn., 111, 409-419 (1957).
Data in the developing adjuvant arthritis (AA) and plasma fibronectin (FN) assays are expressed as percent inhibition, i.e. inhibition of non-injected paw inflammation (NIP) and injected paw (RPV) and lowering of plasma fibronectin, the asterisks * and ** indicating statistical significance at the p<0.01 and p<0.05 levels, respectively. […] Non-statistically significant results are recorded as "------ ". In the acetylcholine-induced abdominal constriction test, the test compounds were administered either as suspensions in gum tragacanth (GT) or as aqueous solutions prepared by addition of just sufficient dilute aqueous methanesulfonic acid (MS) or dilute aqueous lactic acid (LA) to dissolve the compound. The compounds are identified by the example number above where their preparations are described. All data in the anti-bradykinin, rat writhing and Randall-Selitto tests were obtained on oral administration.

The subject of assay [2] is acetic acid-induced writhing. The assay is described as follows: acetic acid-induced writhing assay in the rat (RW). The following applies: for RW ED50 / ED50: oral administration; for ED50: Rattus norvegicus, po; for RW percent inhibition at dose 30: dose level 30. The method, then:
(§1) Data in the developing adjuvant arthritis (AA) and plasma fibronectin (FN) assays are expressed as percent inhibition, i.e. inhibition of non-injected paw inflammation (NIP) and injected paw (RPV) and lowering of plasma fibronectin, the asterisks * and ** indicating statistical significance at the p<0.01 and p<0.05 levels, respectively. Compounds are considered active at p<0.05 level. Non-statistically significant results are recorded as "------ ". In the acetylcholine-induced abdominal constriction test, the test compounds were administered either as suspensions in gum tragacanth (GT) or as aqueous solutions prepared by addition of just sufficient dilute aqueous methanesulfonic acid (MS) or dilute aqueous lactic acid (LA) to dissolve the compound. The compounds are identified by the example number above where their preparations are described. All data in the anti-bradykinin, rat writhing and Randall-Selitto tests were obtained on oral administration.
Background: An intraperitoneal irritant provokes the stretching counted in writhing tests.

Assay [3] relates to adjuvant induced arthritis. The assay is described as follows: developing adjuvant arthritis (AA) assay. The following applies: arthritic rats; printed * = p<0.01, ** = p<0.05. Here is the method:
Antirheumatic and anti-inflammatory activities of the compounds of the invention were determined using the developing adjuvant arthritis assay in rats and the plasma fibronectin assay in arthritic rats. The developing adjuvant arthritis assay was used in conjunction with the plasma fibronectin assay as a primary screening method in the evaluation of compounds for potential use as disease modifying anti-rheumatic drugs. The procedure used to induce arthritis in rats is a modification of the methods published by Pearson, J. Chron. Dis. 16, 863-874 (1973) and by Glenn et al., Amer. J. Vet. Res. 1180-1193 (1965). Adjuvant induced arthritis bears many of the traits of rheumatoid arthritis. It is a chronic, progressive, deforming arthritis of the peripheral joints, with a primary mononuclear cell response consisting of bone and joint space invasion by pannus. In order to detect disease modifying anti-rheumatic drug activity, drug treatment is started before the disease has become irrevocably established. Since such drugs are not designed to be administered prophylactically, drug treatment of adjuvant arthritis is initiated at a time when the disease is developing but is not yet irreversible. Animals develop significant systemic arthritic disease which can be measured by swelling of the non-injected rear paw (NIP) 15 to 20 days following an initial injection on day 1 of complete Freund's adjuvant into the right hindfoot paw.
as §1

Where [4] appears, read: Table 9, Examples, no route marked in the cell, read-out: ACH ED50.
The mark [5] stands for this setting: Table 9, Examples, no route marked in the cell.
The mark [6] stands for this setting: iv, Table 9, iv, read-out: ACH ED50 (iv).

Counter-ions that a name gives are not always drawn. Like-named read-outs stand apart in the source and are kept apart here.

`COc1ccc(C(=O)c2c(C)n(CC3CCCN3C)c3ccccc23)cc1` (single isomer, unassigned) [2E(1), (1)1-(1-methyl-2-pyrrolidinylmethyl)-2-methyl-3-(4-methoxybenzoyl)-1H-indle hydrochloride]: in assay [1] (Table 9, Examples, no route marked in the cell, hydrochloride), the “ACH ED50” value is given as 35 mg/kg. In assay [2] (hydrochloride), the “RW ED50” value is reported as 13 mg/kg.

In the case of `COc1ccc(C(=O)c2c(C)n(CC3CCCN3C)c3ccccc23)cc1` (single isomer, unassigned) [2E(d), (d)1-(1-methyl-2-pyrrolidinylmethyl)-2-methyl-3-(4-methoxy-benzoyl)-1H-inole hydorochloride], the ED50 in assay [1] (setting [4]) turned out to be 47 mg/kg. Besides, the “ACH ED50” value in assay [1] (setting [5]) was determined as 36 mg/kg. Besides, the “RW ED50” value in assay [2] is 30 mg/kg.

Take `COc1ccc(C(=O)c2c(C)n(C3CCCN(C)C3)c3ccccc23)cc1` (centres unmarked) [2AG(a)]: the “ACH ED50” value in assay [1] (Table 9, Examples, no route marked in the cell, listed as 2AG(d)) is 22 mg/kg. Also, the ED50 in assay [2] is 9 mg/kg.

`COc1ccc(C(=O)c2c(C)n(CC3CN(C)CCO3)c3ccccc23)cc1` (centres unmarked) [Example 1A, 1-[(4-methyl-2-morpholinyl)methyl]-2-methyl-3-(4-methoxybenzoyl)-1H-indolehydrochloride]: the values for the ED50 in assay [1] (setting [4]) and in assay [2] were 9 mg/kg and 3 mg/kg, respectively.

With `Cc1c(C(=O)c2ccccc2)c2ccccc2n1CC1CN(C)CCO1` (centres unmarked) [Example 1C], the ED50 in assay [1] (setting [4]) stood at 21 mg/kg; in assay [2], 10 mg/kg.

Take `Cc1c(C(=O)c2ccccc2F)c2ccccc2n1CC1CN(C)CCO1` (centres unmarked) [Example 1F]: the results for the median effective dose (ED50) in assay [1] (setting [4]) and in assay [2] were 22 mg/kg and 26 mg/kg, respectively.

In the case of `COc1ccc(C(=O)c2cn(CC3CCCN(C)C3)c3ccccc23)cc1` (centres unmarked) [Example 1I], the results for the ED50 in assay [1] (setting [6]) and in assay [2] were 5 mg/kg and 32 mg/kg, respectively. In addition, in assay [1] (Table 9, aqueous solution with dilute methanesulfonic acid (MS)), the “ACH ED50 (MS)” value is 38 mg/kg. The “NIP: percent inhibition of non-injected paw inflammation” value in assay [3] stood at 61%. Besides, the “RPV: percent inhibition of injected paw” value in assay [3] stood at 19%.

As for `Cc1c(C(=O)c2ccccc2F)c2ccccc2n1CC1CCCN(C)C1` (centres unmarked) [Example 1J], the ED50 worked out at 32 mg/kg in assay [1] (setting [4]) and 45 mg/kg in assay [2].

As to `Cc1c(C(=O)c2ccccc2)c2ccccc2n1CC1CCCN(C)C1` (centres unmarked) [Example 1K], the ED50 in assay [1] (setting [4]) was found to be 33 mg/kg. In addition, in assay [3], the “NIP: percent inhibition of non-injected paw inflammation” value amounted to 76% and the “RPV: percent inhibition of injected paw” value came out at 50%. For the same compound, the 50% effective dose (ED50) in assay [2] amounted to 40 mg/kg.

In the case of `CCN1CCCC(n2c(C)c(C(=O)c3ccc(OC)cc3)c3ccccc32)C1` (centres unmarked) [Example 2AE], in assay [1] (setting [4]), the ED50 is 26 mg/kg. In assay [2] (oral), the “RW percent inhibition at dose 30” value was 15%.

Consider `COc1ccc(C(=O)c2c(C)n(CC3=CCCN(C)C3)c3ccccc23)cc1` [Example 2AF], for which, in assay [1] (setting [4]), the median effective dose (ED50) came out at 11 mg/kg. In assay [3], the “NIP: percent inhibition of non-injected paw inflammation” value amounted to 93% and the “RPV: percent inhibition of injected paw” value is 78%. Also, the median effective dose (ED50) in assay [2] is 15 mg/kg.

For `COc1ccc(C(=O)c2c(C)n(CC3CCN(C)C3)c3ccccc23)cc1` (centres unmarked) [Example 2AI], the 50% effective dose (ED50) in assay [1] (setting [4]) was 11 mg/kg; in assay [2], 4 mg/kg. The “ACH ED50” value in assay [1] (setting [5]) turned out to be 13 mg/kg.

As for `Cc1c(C(=O)c2ccccc2F)c2ccccc2n1CC1CCCN1C` (centres unmarked) [Example 2AJ], the ED50 turned out to be 72 mg/kg in assay [1] (setting [4]) and 6 mg/kg in assay [2]. Besides, the “NIP: percent inhibition of non-injected paw inflammation” value in assay [3] is given as 31%.

Consider `COc1ccc(C(=O)c2c(C)n(CCC3CCCCN3C)c3ccccc23)cc1` (centres unmarked) [Example 2G], for which, in assay [1] (setting [4]), the ED50 was 26 mg/kg. In addition, in assay [3], the “NIP: percent inhibition of non-injected paw inflammation” value is reported as 93% and the “RPV: percent inhibition of injected paw” value is 73%. For the same compound, in assay [2], it took a dose of 3 mg/kg to reach the 50% effect level (ED50).

As to `COc1ccc(C(=O)c2c(C)n(CC3CCCN(C)C3)c3ccc(F)cc23)cc1` (centres unmarked) [Example 2I], the values for the median effective dose (ED50) in assay [1] (setting [4]) and in assay [2] were 40 mg/kg and 5 mg/kg, respectively. Moreover, in assay [3], the “NIP: percent inhibition of non-injected paw inflammation” value turned out to be 70%. Moreover, the “RPV: percent inhibition of injected paw” value in assay [3] was determined as 51%.

Consider `CCc1c(C(=O)c2ccc(OC)cc2)c2ccccc2n1CC1CCCN(C)C1` (centres unmarked) [Example 2K], for which the ED50 in assay [1] (setting [4]) amounted to 16 mg/kg; in assay [1] (setting [6]), 11 mg/kg; in assay [1] (sc, Table 9, sc, read-out: ACH ED50 (sc)), 10 mg/kg; in assay [2], 23 mg/kg. Besides, the “NIP: percent inhibition of non-injected paw inflammation” value in assay [3] was found to be 68%. Besides, in assay [3], the “RPV: percent inhibition of injected paw” value turned out to be 54%.

`CCN1CCCC(Cn2c(C)c(C(=O)c3ccc(OC)cc3)c3ccccc32)C1` (centres unmarked) [Example 2L]: the 50% effective dose (ED50) in assay [1] (setting [4]) worked out at 11 mg/kg; in assay [2] it was 2 mg/kg.

Regarding `CSc1ccc(C(=O)c2c(C)n(CC3CCCN(C)C3)c3ccccc23)cc1` (centres unmarked) [Example 2O], the ED50 in assay [1] (setting [4]) was found to be 8 mg/kg. In assay [3], the “NIP: percent inhibition of non-injected paw inflammation” value was found to be 65% and the “RPV: percent inhibition of injected paw” value is 44%. The same compound yielded a median effective dose (ED50) in assay [2] of 5 mg/kg.

For `COc1ccc(C(=O)c2c(C)n(CC3CN(C)CCN3C)c3ccccc23)cc1` (centres unmarked) [Example 2V], the ED50 was found to be 20 mg/kg in assay [1] (setting [4]) and 15 mg/kg in assay [2].

For `COc1ccc(C(=O)c2c(C)n(C3CCCCN(C)C3)c3ccccc23)cc1` (centres unmarked) [Example 2X], the median effective dose (ED50) in assay [1] (setting [4]) was 29 mg/kg. The “NIP: percent inhibition of non-injected paw inflammation” value in assay [3] was 43%. Moreover, the “RW percent inhibition at dose 30” value in assay [2] (oral) came out at 54%. In assay [2] (oral, dose level 100), the “RW percent inhibition at dose 100” value worked out at 82%.

Consider `COc1ccc(C(=O)c2c(C)n(CC3CSCCN3C)c3ccccc23)cc1` (centres unmarked) [Example 3A, 1-[(4-methyl-3-thiomorpholinyl)methyl]-2-methyl-3-(4-methoxybenzoyl)-1H-indole], for which the ED50 in assay [1] (setting [4]) is 33 mg/kg; in assay [2], 13 mg/kg.

Regarding `COc1ccc(C(=O)c2c(C)n(CC3CCCNC3)c3ccccc23)cc1` (centres unmarked) [Example 4B], in assay [1] (setting [4]), the median effective dose (ED50) was found to be 15 mg/kg. In assay [3], the “NIP: percent inhibition of non-injected paw inflammation” value is 91% and the “RPV: percent inhibition of injected paw” value is recorded as 79%. The compound also came in with a median effective dose (ED50) in assay [2] of 10 mg/kg.

In the case of `COc1ccc(C(=O)c2c(C)n(CC3CNCCN3)c3ccccc23)cc1` (centres unmarked) [Example 4C], the median effective dose (ED50) is 22 mg/kg in assay [1] (setting [4]) and 20 mg/kg in assay [2].

With `CC(C1CCCN(C)C1)n1cc(C(=O)c2ccccc2F)c2ccccc21` (centres unmarked) [Example 4G], in assay [1] (setting [5]), the “ACH ED50” value is 19 mg/kg. Besides, the “RW ED50” value in assay [2] was 7 mg/kg.

Consider `CC(C1CCCNC1)n1cc(C(=O)c2ccccc2F)c2ccccc21` (centres unmarked) [Example 4H], for which, in assay [1] (setting [5]), the “ACH ED50” value was determined as 25 mg/kg. Also, the 50% effect level in assay [2] (ED50) was put at a dose of 4 mg/kg.

Regarding `COc1ccc(C(=O)c2c(C)n(CC3(O)CCN(C)CC3)c3ccccc23)cc1` [Example 5, 2-methyl-3-(4-methoxybenzoyl)-1-[(1-methyl-4-hydroxy-4-piperidinyl)methyl]-1H-indole], the median effective dose (ED50) was 23 mg/kg in assay [1] (setting [4]) and 9.1 mg/kg in assay [2].

As for `COc1ccc(C(=O)c2c(C)n(CC3CCCN3)c3ccccc23)cc1.Cl` (centres unmarked) [Example 8A, 2-methyl-3-(4-methoxybenzoyl)-1-[(2-pyrrolidinyl)methyl]-1H-indole hydrochloride], the 50% effective dose (ED50) turned out to be 41 mg/kg in assay [1] (setting [4]) and 25 mg/kg in assay [2].

In the case of `Cc1c(C(=O)c2ccc(N)cc2)c2ccccc2n1CC1CCCN(C)C1` (centres unmarked) [Example 9, 2-methyl-3-(4-aminobenzoyl)-1-[(1-methyl-3-piperidinyl)methyl]-1H-indole hydrochloride hemihydrate], the ED50 in assay [1] (setting [4]) is 12 mg/kg; in assay [2], 9 mg/kg.
